# Results from article PMC12198407, “Preclinical and first-in-human of purinostat mesylate, a novel selective HDAC I/IIb inhibitor, in relapsed/refractory multiple myeloma and lymphoma” (Signal Transduction and Targeted Therapy, 2025).
# Read-outs that look alike come from different tables or passages of the source.
# Tests used:
# [1] = tested on: Salmonella typhimurium TA97, TA98, TA100, TA102, TA1535; experiment: Microbial reverse mutation test (Ames); conditions: 50–5000 μg/plate, with and without S9
# Method: In this experiment, two methods were selected: one with the S9 metabolic activation system and one without. The test strains used were histidine-dependent mutant strains of Salmonella typhimurium, specifically TA97, TA98, TA100, TA102, and TA1535. Under both conditions, with and without the S9 metabolic activation system, Purinostat Mesylate was tested at a maximum dose of 5000 μg/plate, along with four additional dose groups of 1500, 500, 150, and 50 μg/plate. A solvent control group (DMSO) and a positive control group (administering the appropriate positive agent) were also included, with each concentration tested in triplicate. The experiment was repeated once.
# r/r DLBCL PDX = r/r DLBCL PDX mouse model; assay type: in vivo, mice; conditions: PM 10 mg/kg; Pola-BR per Table S9
# Method: All animal studies were performed in accordance with the guidelines approved by the Institutional Animal Care and Use Committee of Sichuan University, Chengdu, China. Six- to seven-week-old female NOD-SCID mice were purchased from Beijing Vital River Laboratory Animal Technology Co., Ltd. (China). Mice received subcutaneous inoculation with 0.5 × 10^7 MM1S or RPMI-8226 cells, to establish xenograft models. Heterotopic PDX models were generated as previously described.[54] When tumors reached 150–250 mm^3, mice were treated with various compounds. PM and panobinostat were administered intravenously three times a week at 5 mg/kg in combination therapy. […] Tumor volume (tumor volume (mm^3) = π/6 × length × width^2) and body weights were measured every two days. At the end, tumor tissues were weighed, and antitumor activity was evaluated by the tumor inhibition rate = (1 − tumor weight of treatment group/tumor weight of vehicle group) × 100%.
# [2] = Pharmacokinetics, intravenous; assay type: in vivo, SD rats; conditions: for AUC(0-t) / half-life / Vd / clearance / C0: both sexes, SD, rat, plasma, iv; for Vd: read-out: Vdss; for clearance: read-out: plasma clearance (CL); for increase in AUC0-last for tenfold increase in dose: 1 to 10 mg/kg
# Method: After a single intravenous injection of Purinostat Mesylate at doses of 1, 3, and 10 mg/kg, the average initial concentrations (C0) in male and female SD rats were 736 ± 66.5, 2880 ± 566, and 11500 ± 1790 ng/mL, respectively. […] The half-lives (T1/2) were 3.79 ± 0.511, 4.21 ± 0.248, and 6.24 ± 1.57 min, respectively. The area under the curve (AUC0-last) values were 55.3 ± 3.68, 248 ± 36.1, and 1280 ± 122 ng.h/mL, respectively. After daily intravenous injections of 3 mg/kg Purinostat Mesylate for 7 consecutive days, the average AUC0-last on day 7 for both male and female rats was 332 ± 43.6 ng.h/mL.
# HDAC4 = HDAC4 (Homo sapiens, UniProt P56524); experiment: HDAC enzyme activity in vitro; assay type: biochemical
# Chain of HDAC4 (P56524 whole entry): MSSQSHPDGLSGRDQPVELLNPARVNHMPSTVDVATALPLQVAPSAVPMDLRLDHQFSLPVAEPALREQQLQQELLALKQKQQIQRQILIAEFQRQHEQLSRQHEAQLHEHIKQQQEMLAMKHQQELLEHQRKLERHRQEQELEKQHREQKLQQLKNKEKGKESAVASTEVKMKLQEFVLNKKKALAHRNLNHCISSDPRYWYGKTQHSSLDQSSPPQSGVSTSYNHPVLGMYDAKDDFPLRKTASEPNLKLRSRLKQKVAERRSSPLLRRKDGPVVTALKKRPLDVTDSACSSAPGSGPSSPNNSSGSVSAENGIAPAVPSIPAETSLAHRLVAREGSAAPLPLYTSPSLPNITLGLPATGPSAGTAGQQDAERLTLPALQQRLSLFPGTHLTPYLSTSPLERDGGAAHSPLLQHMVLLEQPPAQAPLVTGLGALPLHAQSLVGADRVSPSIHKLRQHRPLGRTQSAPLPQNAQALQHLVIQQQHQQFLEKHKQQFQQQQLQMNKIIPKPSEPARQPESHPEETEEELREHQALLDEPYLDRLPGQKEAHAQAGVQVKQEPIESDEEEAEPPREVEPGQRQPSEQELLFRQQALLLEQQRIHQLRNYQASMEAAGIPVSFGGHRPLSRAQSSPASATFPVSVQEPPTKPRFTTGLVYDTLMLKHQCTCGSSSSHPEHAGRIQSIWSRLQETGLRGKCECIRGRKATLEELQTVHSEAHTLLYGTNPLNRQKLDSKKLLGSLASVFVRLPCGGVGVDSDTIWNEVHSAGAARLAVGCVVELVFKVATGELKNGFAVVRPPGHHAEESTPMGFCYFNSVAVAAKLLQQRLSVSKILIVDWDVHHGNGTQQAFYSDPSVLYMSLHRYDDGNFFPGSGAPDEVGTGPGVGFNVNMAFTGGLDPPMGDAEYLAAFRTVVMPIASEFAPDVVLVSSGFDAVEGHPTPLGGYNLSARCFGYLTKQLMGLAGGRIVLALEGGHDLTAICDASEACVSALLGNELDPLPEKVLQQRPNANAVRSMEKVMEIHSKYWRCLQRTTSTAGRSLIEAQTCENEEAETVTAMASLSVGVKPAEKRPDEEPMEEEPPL
# [3] = Acute toxicity test, intravenous; assay type: in vivo, rats
# Method: The experimental design included low, medium, and high doses of 50, 100, and 200 mg/kg administered intravenously. In the medium and high-dose groups, symptoms observed included ear reddening, reduced activity, prone posture, rapid breathing, and deep gasping; in the high-dose group, additional signs included deep gasping, arched back, and weight loss.
# HDAC8 = HDAC8 (Homo sapiens, UniProt Q9BY41); experiment: HDAC enzyme activity in vitro; assay type: biochemical
# Chain of HDAC8 (Q9BY41 whole entry): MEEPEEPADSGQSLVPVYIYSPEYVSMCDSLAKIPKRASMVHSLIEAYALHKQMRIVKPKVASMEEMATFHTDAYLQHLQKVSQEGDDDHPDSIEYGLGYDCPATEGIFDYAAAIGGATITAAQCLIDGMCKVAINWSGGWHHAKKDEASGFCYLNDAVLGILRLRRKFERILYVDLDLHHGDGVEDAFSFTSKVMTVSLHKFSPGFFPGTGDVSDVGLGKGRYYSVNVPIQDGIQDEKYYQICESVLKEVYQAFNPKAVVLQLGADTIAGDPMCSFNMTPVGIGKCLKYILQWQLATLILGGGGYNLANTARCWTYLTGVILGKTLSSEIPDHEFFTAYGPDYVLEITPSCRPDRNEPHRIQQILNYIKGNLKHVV
# [4] = Acute toxicity test, intravenous; assay type: in vivo, Beagle dogs
# Method: In this study, the designed doses were 10 and 50 mg/kg administered intravenously. […] The maximum tolerated dose (MTD) was determined to be 10 mg/kg.
# Ramos-luc = experiment: Luciferase substrate viability assay; assay type: cell-based, human
# rabbit red blood cells = experiment: In vitro hemolytic test; conditions: 0.204 mg/mL
# Method: This experiment included a negative control group (0.9% sodium chloride injection), a positive control group (sterile water for injection), a blank formulation group of injectable Purinostat Mesylate with five dosage levels (0.1, 0.2, 0.3, 0.4, and 0.5 mL/test tube at a concentration of 3.06 mg/mL, which is the same as the concentration of the excipient in the injectable Purinostat Mesylate group), and five dosage levels of injectable Purinostat Mesylate (0.1, 0.2, 0.3, 0.4, and 0.5 mL/test tube at a concentration of 0.204 mg/mL, the maximum intended clinical concentration). A 2% red blood cell suspension was mixed with 0.9% sodium chloride injection, sterile water for injection, the blank formulation of injectable Purinostat Mesylate, and injectable Purinostat Mesylate in the specified proportions, and then placed in a constant temperature incubator at 37±0.5°C. […] Each group was measured in parallel three times.
# [5] = Pharmacokinetics, intravenous; assay type: in vivo, Beagle dogs; conditions: both sexes, Beagle, dog, plasma; for Vd: read-out: Vdss; for clearance: read-out: plasma clearance (CL)
# Method: The elimination half-lives (T1/2) were 4.49 ± 0.669, 7.05 ± 3.07, and 8.47 ± 1.26 hours, respectively. The area under the plasma concentration-time curve from time zero to the last quantifiable time point (AUC0-last) was 75.1 ± 18.3, 238 ± 63.1, and 713 ± 122 h•ng/mL, respectively.
# [6] = single i.v., range over doses, read-out: half-life
# Method for T315I Bcr-Abl B-ALL: Subcutaneous or orthotopic tumor models were established using NOD/SCID mice for human-derived lymphoma, multiple myeloma cell lines, and samples from clinical B-ALL patients. The Ighmyc transgenic mice and primary B-ALL models were induced using C57 mouse strains. The experimental doses of Purinostat Mesylate include 1.25, 2.5, 5, 10, and 20 mg/kg, administered via tail vein (i.v.) three times a week. In each model experiment, the positive control drugs included the HyperCVAD regimen (cyclophosphamide, doxorubicin, vincristine, dexamethasone, methotrexate, and cytarabine) simulating clinical treatment for double-hit lymphoma, the CODOX regimen (cyclophosphamide, doxorubicin, vincristine, methotrexate, and cytarabine) simulating clinical treatment for Burkitt lymphoma, as well as lenalidomide (L), bortezomib (B), dexamethasone (D), and LBH589 lactate, which is marketed for relapsed or refractory multiple myeloma. In the subcutaneous tumor model experiments using human-derived tumor cell lines, the inhibitory effect of Purinostat Mesylate on tumors was assessed by measuring tumor volume (TV), tumor weight, relative tumor volume (RTV), and relative tumor growth rate (T/C). Additionally, in some model experiments, satellite groups were designed, where animals in these groups were not sacrificed at the same treatment endpoint and received extended treatment. […]
structure (smiles),measurement,setting,value
"CN(Cc1nc2c(N3CCOCC3)nc(-c3ccc(N)cc3)nc2n1C)c1ncc(C(=O)NO)cn1.CS(=O)(=O)O [PM, 2-(((2-(4-Aminophenyl)-9-methyl-6-(4-morpholinyl)-9H-purine-8-yl)methyl)methylamino)-N-hydroxy-5-pyrimidine-carboxamide Mesylate]",Ames test result,[1],negative
same,tumor inhibition rate,r/r DLBCL PDX,77.14%
same,AUC(0-t),"[2]; 1 mg/kg, read-out: AUC0-last",55.3 ± 3.68 ng·h/mL
same,half-life,"[2]; 1 mg/kg, read-out: T1/2",3.79 ± 0.511 min
same,Vd,[2]; 1 mg/kg,1.43 ± 0.135 L/kg
same,clearance,[2]; 1 mg/kg,301 ± 20 mL/min/kg
same,AUC(0-t),"[2]; 3 mg/kg, 3 mg/kg daily i.v. for 7 days, read-out: AUC0-last on day 7",332 ± 43.6 ng·h/mL
same,AUC(0-t),"[2]; 3 mg/kg, read-out: AUC0-last",248 ± 36.1 ng·h/mL
same,half-life,"[2]; 3 mg/kg, read-out: T1/2",4.21 ± 0.248 min
same,Vd,[2]; 3 mg/kg,1.13 ± 0.241 L/kg
same,clearance,[2]; 3 mg/kg,205 ± 36.4 mL/min/kg
same,AUC(0-t),"[2]; 10 mg/kg, read-out: AUC0-last",1280 ± 122 ng·h/mL
same,half-life,"[2]; 10 mg/kg, read-out: T1/2",6.24 ± 1.57 min
same,Vd,[2]; 10 mg/kg,0.948 ± 0.125 L/kg
same,clearance,[2]; 10 mg/kg,131 ± 12.8 mL/min/kg
same,C0,[2]; 1 mg/kg single i.v.,736 ± 66.5 ng/mL
same,C0,[2]; 3 mg/kg single i.v.,2880 ± 566 ng/mL
same,C0,[2]; 10 mg/kg single i.v.,11500 ± 1790 ng/mL
same,half-life,[2]; [6],3.79 to 6.24 min
same,increase in AUC0-last for tenfold increase in dose,[2]; female rats,24.4 fold
same,increase in AUC0-last for tenfold increase in dose,[2]; male rats,21.7 fold
same,IC50,HDAC4,1070 nM
same,MTD,"[3]; both sexes, rat, in vivo, iv, single i.v., read-out: maximum tolerated dose (MTD)",100 mg/kg
same,mortality,"[3]; high dose 200 mg/kg, days 1 to 6",Six out of ten
same,IC50,HDAC8,3.8 nM
same,median survival time,"T315I Bcr-Abl B-ALL; 5 mg/kg, solvent control 44 days",greater than 80 days
same,median survival time,T315I Bcr-Abl B-ALL; 10 mg/kg,greater than 80 days
same,mortality,[4]; 50 mg/kg,all animals dying between days 2 and 4
same,MTD,"[4]; beagle, dog, in vivo, iv, single i.v., read-out: maximum tolerated dose (MTD)",10 mg/kg
same,time until effect detectable,Ramos-luc,24 h
same,in vitro hemolytic test outcome,rabbit red blood cells,negative
same,AUC(0-t),[5]; 0.3 mg/kg,75.1 ± 18.3 ng·h/mL
same,Cmax,[5]; 0.3 mg/kg single i.v.,130 ± 35.5 ng/mL
same,half-life,"[5]; 0.3 mg/kg, read-out: T1/2 (converted)",4.49 ± 0.669 h
same,Vd,[5]; 0.3 mg/kg,3.69 ± 0.957 L/kg
same,clearance,[5]; 0.3 mg/kg,68.4 ± 13.2 mL/min/kg
same,AUC(0-t),[5]; 1 mg/kg,238 ± 63.1 ng·h/mL
same,Cmax,[5]; 1 mg/kg single i.v.,411 ± 162 ng/mL
same,half-life,"[5]; 1 mg/kg, read-out: T1/2 (converted)",7.05 ± 3.07 h
same,Vd,[5]; 1 mg/kg,3.85 ± 1.8 L/kg
same,clearance,[5]; 1 mg/kg,73.4 ± 17.9 mL/min/kg
same,AUC(0-t),[5]; 3 mg/kg,713 ± 122 ng·h/mL
same,Cmax,[5]; 3 mg/kg single i.v.,1230 ± 166 ng/mL
same,half-life,"[5]; 3 mg/kg, read-out: T1/2 (converted)",8.47 ± 1.26 h
same,Vd,[5]; 3 mg/kg,2.89 ± 0.605 L/kg
same,clearance,[5]; 3 mg/kg,71.5 ± 11.6 mL/min/kg
same,half-life,[5]; [6],4.49 to 8.47 h
